Data taken from ChEMBL document CHEMBL3769394, “The Importance of Being Me: Magic Methyls, Methyltransferase Inhibitors, and the Discovery of Tazemetostat” (J Med Chem, 2016).
pIC50: −log10 of the molar value. Calls of active or inactive are those of the source. The rule behind the calls is not given here.

Key:
[1] = target: T1, Histone-lysine N-methyltransferase EZH2 (Homo sapiens, UniProt Q15910); assay: Inhibition of methyltransferase activity of human EZH2 using chicken oligonucleosomes as substrate by pull down assay
Target sequence in this assay (Q15910 whole entry): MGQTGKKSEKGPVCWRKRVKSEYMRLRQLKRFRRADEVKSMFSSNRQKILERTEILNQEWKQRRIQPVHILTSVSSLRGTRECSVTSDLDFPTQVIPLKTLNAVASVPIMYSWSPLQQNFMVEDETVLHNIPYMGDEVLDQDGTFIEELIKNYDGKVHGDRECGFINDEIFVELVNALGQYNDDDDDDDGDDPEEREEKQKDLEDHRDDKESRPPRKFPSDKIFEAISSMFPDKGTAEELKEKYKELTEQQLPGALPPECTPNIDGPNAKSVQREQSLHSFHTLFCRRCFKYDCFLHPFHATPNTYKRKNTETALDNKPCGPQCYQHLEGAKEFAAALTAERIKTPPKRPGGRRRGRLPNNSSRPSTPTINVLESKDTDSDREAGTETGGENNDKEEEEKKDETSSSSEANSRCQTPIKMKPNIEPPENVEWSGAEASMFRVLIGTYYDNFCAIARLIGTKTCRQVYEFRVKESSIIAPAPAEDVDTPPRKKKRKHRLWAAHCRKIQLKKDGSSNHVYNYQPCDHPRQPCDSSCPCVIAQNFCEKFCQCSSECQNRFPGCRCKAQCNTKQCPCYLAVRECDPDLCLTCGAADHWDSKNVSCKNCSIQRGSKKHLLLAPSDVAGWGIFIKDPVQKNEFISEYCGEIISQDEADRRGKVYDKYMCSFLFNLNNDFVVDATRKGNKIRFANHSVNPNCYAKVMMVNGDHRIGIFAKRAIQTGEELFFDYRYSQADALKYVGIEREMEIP

[2] = Aqueous solubility of the compound at pH 7; assay type: physicochemical
[3] = Volume of distribution at steady state in mouse at 2 mg/kg, iv and 10 mg/kg, po by LC-MS/MS analysis; assay type: ADME, organism-based; conditions: in vivo, read-out: Vdss
[4] = Clearance in mouse at 2 mg/kg, iv and 10 mg/kg, po by LC-MS/MS analysis; assay type: ADME, organism-based; conditions: in vivo
[5] = Oral bioavailability in mouse at 10 mg/kg by LC-MS/MS analysis; assay type: ADME, organism-based; conditions: in vivo
[6] = AUC in mouse at 2 mg/kg, iv and 10 mg/kg, po by LC-MS/MS analysis; assay type: ADME, organism-based; conditions: in vivo
[7] = target: T1, Histone-lysine N-methyltransferase EZH2; assay: Inhibition of methyltransferase activity of human EZH2 using chicken oligonucleosomes as substrate up to 10 uM by pull down assay
Target sequence in this assay (Q15910 whole entry, looked up): as the sequence (Q15910 whole entry) above

## Cc1cc(C)c(CNC(=O)c2ccc3cnn(C4CCCC4)c3c2)c(=O)[nH]1
[1]
  pIC50: < 4.30

## Cc1cc(C)c(CNC(=O)c2ccnc3c2cnn3C(C)C)c(=O)[nH]1
[1]
  pIC50: 5.51
[2]; buffer
  solubility: soluble

## Cc1cc(C)c(CNC(=O)c2cc(Br)nc3c2cnn3C2CCN(C(=O)N(C)C)CC2)c(=O)[nH]1
[1]
  pIC50: 7.30

## CCN(c1cc(Cl)cc(C(=O)NCc2c(C)cc(C)[nH]c2=O)c1C)C1CCOCC1
[3]
  Vd: 0.45 L/kg
[4]
  clearance: 49 mL/min/kg
[5]
  bioavailability: 1.6%
[6]
  AUC: 680 ng·h/mL

## CCN(c1ccc(Cl)c(C(=O)N(C)Cc2c(C)cc(C)[nH]c2=O)c1C)C1CCOCC1
[1]
  pIC50: 6.70

## Cc1cc(C)c(CNC(=O)c2cc(Br)cc(N(C)C3CCOCC3)c2C)c(=O)[nH]1
[3]
  Vd: 2.7 L/kg
[4]
  clearance: 90 mL/min/kg
[5]
  bioavailability: 18%
[6]
  AUC: 350 ng·h/mL

## Cc1cc(C)c(CNC(=O)c2cc(Br)nc3c2cnn3C(C)C)c(=O)[nH]1
[1]
  pIC50: 6.05
[2]; buffer
  solubility: soluble

## Cc1cc(C)c(CNC(=O)c2ccc3c(cnn3C(C)C)c2)c(=O)[nH]1
[1]
  pIC50: 4.66

## Cc1cc(C)c(CNC(=O)c2cc(Br)nc3c2cnn3C2CCN(C(=O)OC(C)(C)C)CC2)c(=O)[nH]1
[1]
  pIC50: 6.70

## Cc1cc(C)c(CNC(=O)c2cc(Br)cc(N(C)C3CCCC3)c2C)c(=O)[nH]1
[3]
  Vd: 0.97 L/kg
[4]
  clearance: 18 mL/min/kg
[5]
  bioavailability: 2%
[6]
  AUC: 46 ng·h/mL

## Cc1cc(C)c(CNC(=O)c2cc(C3=CC(C)(C)NC(C)(C)C3)nc3c2cnn3C(C)C)c(=O)[nH]1
[1]
  pIC50: 6.52
[2]; buffer
  solubility: soluble

## Cc1cc(C)c(CNC(=O)c2cccc3c2ncn3C(C)C)c(=O)[nH]1
[1]
  pIC50: < 4.30

## CCn1ncc2c(C(=O)NCc3c(C)cc(C)[nH]c3=O)cc(C3=CC(C)(C)NC(C)(C)C3)nc21
[1]
  pIC50: 5.30

## Cc1cc(C)c(CNC(=O)c2cccc3c2nnn3C(C)C)c(=O)[nH]1
[1]
  pIC50: < 4.30

## Cc1cc(C)c(CNC(=O)c2cc(C)n(C3CCCCC3)c2C)c(=O)[nH]1
[1]
  pIC50: 5.47
[2]; aqueous, read-out: solubility
  solubility: < 10 µM

## Cc1cc(C)c(CNC(=O)c2cccc3c2cnn3C(C)C)c(=O)[nH]1
[1]
  pIC50: 5.96

## Cc1cc(C)c(CNC(=O)c2cc(C(C)C)nc3c2cnn3C(C)C)c(=O)[nH]1
[1]
  pIC50: 5.64
[2]; buffer
  solubility: soluble

## Cc1cc(C)c(CNC(=O)c2ccc3cnn(C4CCCC4)c3c2C)c(=O)[nH]1
[1]
  pIC50: 5.22

## Cc1cc(C)c(CNC(=O)c2cc(-c3ccc(CN4CCOCC4)cc3)nc3c2cnn3C(C)C)c(=O)[nH]1
[3]
  Vd: 1.5 L/kg
[4]
  clearance: 35 mL/min/kg
[5]
  bioavailability: 41%
[6]
  AUC: 950 ng·h/mL
[2]; buffer
  solubility: soluble

## Cc1cc(C)c(CNC(=O)c2cc(N3CCNCC3)nc3c2cnn3C(C)C)c(=O)[nH]1
[1]
  pIC50: 5.80
[2]; buffer
  solubility: soluble

## Cc1cc(C)c(CNC(=O)c2cc(-c3ccc(N4CCNCC4)nc3)nc3c2cnn3C(C)C)c(=O)[nH]1
[1]
  pIC50: 6.70
[2]; buffer
  solubility: soluble

## Cc1cc(C)c(CNC(=O)c2cc(Br)nc3c2cnn3C2CCNCC2)c(=O)[nH]1
[1]
  pIC50: 5.66

## Cc1cc(C)c(CNC(=O)c2cc(Br)nc3c2cnn3C2CCOCC2)c(=O)[nH]1
[1]
  pIC50: 6.15

## Cc1cc(C)c(CNC(=O)c2cc(C3=CC(C)(C)NC(C)(C)C3)nc3c2cnn3C)c(=O)[nH]1
[1]
  pIC50: 4.41

## CCN(c1cc(-c2ccc(CN3CCOCC3)cc2)cc(C(=O)NCc2c(C)cc(C)[nH]c2=O)c1C)C1CCOCC1 [TAZEMETOSTAT]
[3]
  Vd: 1 L/kg
[4]
  clearance: 13 mL/min/kg
[5]
  bioavailability: 55%
[6]
  AUC: 2500 ng·h/mL

## Cc1cc(C)c(CNC(=O)c2cc(-c3ccc(CN4CCOCC4)cc3)cc3c2cnn3C2CCCC2)c(=O)[nH]1
[3]
  Vd: 0.49 L/kg
[4]
  clearance: 11 mL/min/kg
[5]
  bioavailability: 47%
[6]
  AUC: 2900 ng·h/mL

## Cc1cc(C)c(CNC(=O)c2cc(Br)nc3c2cnn3C2CCN(C(=O)C(C)(C)C)CC2)c(=O)[nH]1
[1]
  pIC50: 7.30

## Cc1cc(C)c(CNC(=O)c2ccc3cnn(C(C)C)c3c2)c(=O)[nH]1
[1]
  pIC50: < 4.30

## Cc1cc(C)c(CNC(=O)c2cccc3c2ccn3C(C)C)c(=O)[nH]1
[1]
  pIC50: 5.51

## COc1cc(C(=O)NCc2c(C)cc(C)[nH]c2=O)c2cnn(C(C)C)c2n1
[1]
  pIC50: 5.62
[2]; buffer
  solubility: soluble

## CCN(c1cc(Cl)cc(C(=O)NCc2c(C)cc(C)[nH]c2=O)c1)C1CCOCC1
[1]
  pIC50: 4.85

## CCN(c1cc(Cl)cc(C(=O)NCc2c(C)cc(C)nc2OC)c1C)C1CCOCC1
[1]
  pIC50: < 5.00
[7]
  inhibition: inactive

## Cc1cc(C)c(CNC(=O)c2cc(-c3ccc(CN4CCOCC4)cc3)cc(N(C)C3CCCC3)c2C)c(=O)[nH]1
[3]
  Vd: 0.66 L/kg
[4]
  clearance: 16 mL/min/kg
[5]
  bioavailability: 24%
[6]
  AUC: 2500 ng·h/mL

## Cc1cc(C)c(CNC(=O)c2cc(-c3ccc4c(c3)OCCO4)nc3c2cnn3C(C)C)c(=O)[nH]1
[3]
  Vd: 1.3 L/kg
[1]
  pIC50: 6.30
[4]
  clearance: 24 mL/min/kg
[5]
  bioavailability: 0.5%
[6]
  AUC: 700 ng·h/mL
